≈ marks a conversion by molar mass, not a printed value. Like-named read-outs stand apart in the source and are kept apart here.
Assays:
[1] = system: E. coli S30 bacterial extract; assay: Coupled bacterial transcription/translation assay (luciferase reporter); type: biochemical
Procedure: Coupled Bacterial Transcription/Translation Assay. The DNA template, pBestLuc™ (Promega), is a plasmid containing a reporter gene for firefly luciferase fused to a strong tac promoter and ribosome binding site. Messenger RNA from 1 μg pBestLuc was transcribed and translated in E. coli S30 bacterial extract in the presence or absence of test compound. Compounds were tested in a black 96 well microtiter plate with an assay volume of 35 μL. Each test well contained: 5 μL test compound, 13 μL S30 premix (Promega), 4 μL 10× complete amino acid mix (1 mM each), 5 μL E. coli S30 extract and 8 μL of 0.125 μg/μL pBestLuc™. The transcription/translation reaction was incubated for 35 minutes at 37° C. followed by detection of functional luciferase with the addition of 30 μL LucLite™ (Packard). Light output was quantitated on a Packard TopCount.

E. coli = assay: Minimum inhibitory concentration (MIC), E. coli; type: cell-based; conditions: Escherichia coli, Table 6
Procedure: (§1) Bacterial Strains. The Streptococcus pyogenes strains, Klebsiella pneumoniae, Escherichia coli, Staphylococcus aureus, Enterococcus faecalis used in the antibacterial activity studies ATCC 14289, 49399, 13883, 25922, 13709, 29212, respectively, are obtained from the American Type Culture Collection, Rockville, Md. The strain E. coli imp- is a mutant strain of wild type E. coli with increased outer membrane permeability and was grown in LB broth at 37 ° C. S. pyogenes strain is grown in Todd-Hewitt broth. S. aureus is grown in trypticase soy broth, E. faecalis in Todd-Hewitt broth, wild type E. coli and K. pneumoniae, in nutrient broth.
(§2) Determination of Minimum Inhibitory Concentrations (MICs). The assays were carried out in […] volume in duplicate in 96-well clear flat-bottom plates. The bacterial suspension from an overnight culture growth in appropriate medium was added to a solution of test compound in 4% DMSO in water. Final bacterial inoculum was approximately 10^5-10^6 CFU/well. The percent growth of the bacteria in test wells relative to that observed for a well containing no compound was determined by measuring absorbance at 595 nm (A595) after 24 h. […] Both ampicillin and tetracycline is used as antibiotic-positive controls in each screening assay for S. pyogenes, E. coli imp-, E. coli, S. aureus, E. faecalis, K pneumoniae and P. vulgaris. […]

E. hirae = assay: Minimum inhibitory concentration (MIC), E. hirae; type: cell-based; conditions: Enterococcus hirae, Table 6
Procedure: (§3) Determination of Minimum Inhibitory Concentrations (MICs). The assays were carried out in […] volume in duplicate in 96-well clear flat-bottom plates. The bacterial suspension from an overnight culture growth in appropriate medium was added to a solution of test compound in 4% DMSO in water. Final bacterial inoculum was approximately 10^5-10^6 CFU/well. The percent growth of the bacteria in test wells relative to that observed for a well containing no compound was determined by measuring absorbance at 595 nm (A595) after 24 h. […] Both ampicillin and tetracycline is used as antibiotic-positive controls in each screening assay for S. pyogenes, E. coli imp-, E. coli, S. aureus, E. faecalis, K pneumoniae and P. vulgaris. Ciprofloxacin is used as an antibiotic positive control in each screening assay for P. aeruginosa.

S. aureus = assay: Minimum inhibitory concentration (MIC), S. aureus; type: cell-based; conditions: Staphylococcus aureus, Table 6
Procedure: as §1, §2

S. pyogenes = assay: Minimum inhibitory concentration (MIC), S. pyogenes; type: cell-based; conditions: Streptococcus pyogenes
Procedure: as §1, §3

K. pneumoniae = assay: Minimum inhibitory concentration (MIC), K. pneumoniae; type: cell-based; conditions: Klebsiella pneumoniae, Table 6
Procedure: as §1, §2

[2] = system: 58 nucleotide fragment of E. coli 23S ribosomal RNA (23S rRNA); assay: Mass-spec binding assay (ESI-FTICR-MS); conditions: Table 5, amino acid spacer compounds; read-out: approx. Kd
Procedure: Binding affinity of test compounds to a 58 nucleotide fragment of E. coli 23S ribosomal RNA (23S rRNA) was determined using electrospray ionization Fourier transform ion cyclotron resonance mass spectrometry (ESI-FTICR-MS). The structure of the 23S rRNA fragment and its preparation is described by Conn et al (Science, 1999, 284(5417):1171) and Hinck et al (J. Mol. Biol., 1997, 274(1): 101) both incorporated herein by reference. The mass spec assay determined the exact chemical composition of ligands that bound to the target rRNA and determined relative or absolute dissociation (KD) of ligands for the target. In the first step of the assay, a mixture of 23S rRNA target and test compound were moved from solution into the gas phase by electrospray ionization. The FT-ICR mass spectrometer served as a parallel set of “scales”, simultaneously measuring the exact molecular masses of the small molecules that bound to the RNA with great accuracy. The mass measurement error for an RNA-ligand complex weighing 10 kDa equals the mass of an electron. At this level of mass accuracy, each compound in the mixture was “labeled” by its molecular formula and exact molecular mass. […]

[3] = S. pyogenes, Table 6, read-out: MIC
[4] = Table 5, amino acid spacer compounds

O=C(Nc1cccc(-c2ccc(C(=O)N3CCNCC3)o2)c1)c1ccc2[nH]c(=O)c(=O)[nH]c2c1
IC50 ([1]; Table 4, heteroaryl compounds): 25 µM

O=C(Nc1cccc(-c2nc(C(=O)N3CCNCC3)cs2)c1)c1ccc2[nH]c(=O)c(=O)[nH]c2c1
IC50 ([1]; Table 4, heteroaryl compounds): 75 µM

O=C(Nc1cccc(-c2ccc(S(=O)(=O)N3CCNCC3)s2)c1)c1ccc2[nH]c(=O)c(=O)[nH]c2c1
IC50 ([1]; Table 4, heteroaryl compounds): 35 µM

O=c1[nH]c2ccc(S(=O)(=O)Nc3cccc(-c4ccc(CN5CCNCC5)s4)c3)cc2[nH]c1=O
IC50 ([1]; Table 4, heteroaryl compounds): 80 µM

O=C(c1ccc(-c2cccc(NS(=O)(=O)c3ccc4[nH]c(=O)c(=O)[nH]c4c3)c2)s1)N1CCNCC1
IC50 ([1]; Table 4, heteroaryl compounds): 80 µM

O=C(Nc1ccc(-c2ccc(CN3CCNCC3)s2)cc1)c1ccc2[nH]c(=O)c(=O)[nH]c2c1
IC50 ([1]; Table 4, heteroaryl compounds): 55 µM

O=C(CNC(=O)c1ccc2[nH]c(=O)c(=O)[nH]c2c1)Nc1cccc(-c2ccc(C(=O)N3CCNCC3)s2)c1
IC50 ([1]; Table 4, heteroaryl compounds): 100 µM

O=C(Nc1ccc(-c2ccc(C(=O)N3CCNCC3)s2)cc1)c1ccc2[nH]c(=O)c(=O)[nH]c2c1
IC50 ([1]; Table 4, heteroaryl compounds): 50 µM

O=C(Nc1ccc(-c2ccc(C(=O)Nc3ccc(C(=O)N4CCNCC4)cc3)s2)cc1)c1ccc2[nH]c(=O)c(=O)[nH]c2c1
IC50 ([1]; Table 4, heteroaryl compounds): 30 µM

O=C(Nc1cccc(-c2ccc(C(=O)N3CCC[C@H]3C(=O)N3CCNCC3)s2)c1)c1ccc2[nH]c(=O)c(=O)[nH]c2c1
IC50 ([1]; Table 4, heteroaryl compounds): 25 µM

CCn1cc(C(=O)Nc2cccc(-c3ccc(C(=O)N4CCNCC4)s3)c2)c(=O)c2ccc(C)nc21
MIC (E. coli): 50 to 100 µM (≈ 25.1 to 50.2 µg/mL)
MIC (E. hirae): 50 to 100 µM (≈ 25.1 to 50.2 µg/mL)
MIC (S. aureus): 50 to 100 µM (≈ 25.1 to 50.2 µg/mL)
MIC (S. pyogenes; [3]): 25 to 50 µM (≈ 12.5 to 25.1 µg/mL)
MIC (K. pneumoniae): 50 to 100 µM (≈ 25.1 to 50.2 µg/mL)

NCCC(NC(=O)c1ccc(-c2cccc(NC(=O)c3ccc4[nH]c(=O)c(=O)[nH]c4c3)c2)s1)C(=O)N1CCNCC1 (centres unmarked)
MIC (S. pyogenes): 50 to 100 µM (≈ 28.8 to 57.6 µg/mL)

CCn1cc(C(=O)Nc2ccc(-c3ccc(C(=O)N4CCNCC4)s3)cc2)c(=O)c2ccc(C)nc21
MIC (E. coli): 50 to 100 µM (≈ 25.1 to 50.2 µg/mL)
MIC (S. pyogenes; [3]): 50 to 100 µM (≈ 25.1 to 50.2 µg/mL)

O=C(Nc1cccc(-c2ccc(C(=O)N3CCNCC3)s2)c1)c1ccc2[nH]c(=O)c(=O)[nH]c2c1 [Structure 1]
IC50 [1, 4]: 25 µM
Kd [2]: 79 µM

O=C(Nc1cccc(-c2ccc(C(=O)NCCC(=O)N3CCNCC3)s2)c1)c1ccc2[nH]c(=O)c(=O)[nH]c2c1 [Structure 3]
IC50 [1, 4]: 35 µM
Kd [2]: 139 µM

O=C(Nc1cccc(-c2ccc(C(=O)N3CCNCC3)s2)c1)c1ccc2[nH]c(=O)c(=O)[nH]c2c1 [drawing 51]
IC50 ([1]; Table 4, heteroaryl compounds): 25 µM

From US6849660B1, “Antimicrobial biaryl compounds” (ISIS Pharmaceuticals, Inc., priority 2000, dated 2005)
